Laboratory results taken from US9637496B2, “Substituted 7-azabicycles and their use as orexin receptor modulators” (priority 2013, dated 2017).
pKi: −log10 of the molar value. Where two headings read alike, the source gives them in different places.

Legend:
rat orexin 1 receptor = rat orexin 1 receptor (Rattus norvegicus (Rat), UniProt P56718); test: Rat orexin 1 receptor radioligand binding (competitive binding, HEK293 membranes); details: read-out: rOX1 Ki
human orexin 2 receptor = human orexin 2 receptor (Homo sapiens (Human), UniProt O43614); test: Human orexin 2 receptor radioligand binding ([3H]-EMPA competition, HEK293 membranes); details: Table 2, further testing; averages from 2-20 runs; read-out: hOX2 Ki
human orexin 2 receptor, sequence (O43614 whole entry): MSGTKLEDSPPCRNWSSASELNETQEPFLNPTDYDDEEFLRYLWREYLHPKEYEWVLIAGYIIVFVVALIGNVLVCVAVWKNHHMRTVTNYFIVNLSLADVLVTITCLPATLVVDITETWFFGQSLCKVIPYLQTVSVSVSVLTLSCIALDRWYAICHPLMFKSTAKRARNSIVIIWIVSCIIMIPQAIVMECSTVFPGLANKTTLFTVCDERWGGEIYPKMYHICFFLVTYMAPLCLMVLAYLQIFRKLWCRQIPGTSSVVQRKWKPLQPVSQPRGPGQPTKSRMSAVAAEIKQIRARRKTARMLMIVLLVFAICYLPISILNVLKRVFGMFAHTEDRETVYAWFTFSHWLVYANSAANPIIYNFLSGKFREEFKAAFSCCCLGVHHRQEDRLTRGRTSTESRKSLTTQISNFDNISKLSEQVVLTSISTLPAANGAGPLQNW

human orexin 1 receptor = human orexin 1 receptor (Homo sapiens (Human), UniProt O43613); test: Human orexin 1 receptor radioligand binding (competitive binding, CHO membranes); details: read-out: hOX1 Ki
human orexin 1 receptor, sequence (O43613 whole entry): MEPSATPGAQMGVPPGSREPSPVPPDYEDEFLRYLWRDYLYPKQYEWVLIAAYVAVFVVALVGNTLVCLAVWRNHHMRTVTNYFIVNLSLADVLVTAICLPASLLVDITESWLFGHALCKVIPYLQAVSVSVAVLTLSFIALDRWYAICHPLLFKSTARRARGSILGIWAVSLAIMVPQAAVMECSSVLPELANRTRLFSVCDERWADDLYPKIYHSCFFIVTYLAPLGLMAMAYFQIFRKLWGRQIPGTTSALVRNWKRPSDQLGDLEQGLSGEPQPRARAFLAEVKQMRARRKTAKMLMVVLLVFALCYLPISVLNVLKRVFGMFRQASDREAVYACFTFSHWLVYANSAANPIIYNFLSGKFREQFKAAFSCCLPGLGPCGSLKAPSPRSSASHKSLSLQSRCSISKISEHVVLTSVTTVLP

[1] = Table 2, further testing, averages from 2-20 runs

rat orexin 1 receptor, sequence (P56718 whole entry): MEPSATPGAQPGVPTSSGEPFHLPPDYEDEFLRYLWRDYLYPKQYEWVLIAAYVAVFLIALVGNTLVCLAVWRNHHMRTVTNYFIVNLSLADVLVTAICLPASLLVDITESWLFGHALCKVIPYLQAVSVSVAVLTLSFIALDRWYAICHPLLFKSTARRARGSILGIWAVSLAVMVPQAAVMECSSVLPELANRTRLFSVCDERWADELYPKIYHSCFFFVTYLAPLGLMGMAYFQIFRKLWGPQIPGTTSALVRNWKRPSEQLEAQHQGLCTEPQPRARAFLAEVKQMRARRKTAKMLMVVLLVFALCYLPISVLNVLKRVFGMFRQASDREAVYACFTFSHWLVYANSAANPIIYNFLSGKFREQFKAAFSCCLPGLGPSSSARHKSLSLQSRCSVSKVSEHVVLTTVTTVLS

| Structure (SMILES) | pKi (rat orexin 1 receptor; [1]) | pKi (human orexin 2 receptor) | pKi (human orexin 1 receptor; [1]) | pKi (rat orexin 1 receptor) | pKi (human orexin 1 receptor) |
| --- | --- | --- | --- | --- | --- |
| Cc1cnc(C(=O)N2[C@@H]3CC[C@H]2[C@H](Nc2ncc(C(F)(F)F)cc2F)C3)c(-c2ncccn2)c1 [Example 457, ((1S,2R,4R)-2-((3-fluoro-5-(trifluoromethyl)pyridin-2-yl)amino)-7-azabicyclo[2.2.1]heptan-7-yl)(5-methyl-3-(pyrimidin-2-yl)pyridin-2-yl)methanone] | 7.26 | 5.04 | 7.01 |  |  |
| O=C(c1ncccc1-c1ncccn1)N1[C@@H]2CC[C@H]1[C@H](Nc1ncc(C(F)(F)F)cc1F)C2 [Example 458, ((1S,2R,4R)-2-((3-fluoro-5-(trifluoromethyl)pyridin-2-yl)amino)-7-azabicyclo[2.2.1]heptan-7-yl)(3-(pyrimidin-2-yl)pyridin-2-yl)methanone] | 7.34 | 6.03 | 7.35 |  |  |
| O=C(c1c(F)cccc1-c1ncccn1)N1[C@@H]2CC[C@H]1[C@H](Nc1ncc(C(F)(F)F)cc1F)C2 [Example 459, ((1S,2R,4R)-2-((3-fluoro-5-(trifluoromethyl)pyridin-2-yl)amino)-7-azabicyclo[2.2.1]heptan-7-yl)(2-fluoro-6-(pyrimidin-2-yl)phenyl)methanone] | 7.59 | 6.28 | 7.15 |  |  |
| O=C(c1ccccc1-c1ncc(F)cn1)N1[C@@H]2CC[C@H]1[C@H](Nc1ncc(C(F)(F)F)cc1F)C2 [Example 460, ((1S,2R,4R)-2-((3-fluoro-5-(trifluoromethyl)pyridin-2-yl)amino)-7-azabicyclo[2.2.1]heptan-7-yl)(2-(5-fluoropyrimidin-2-yl)phenyl)methanone] | 7.24 | 5.89 | 7.39 |  |  |
| O=C(c1ccccc1-c1ncccn1)N1[C@@H]2CC[C@H]1[C@H](Nc1ncc(C(F)(F)F)cc1F)C2 [Example 461, ((1S,2R,4R)-2-((3-fluoro-5-(trifluoromethyl)pyridin-2-yl)amino)-7-azabicyclo[2.2.1]heptan-7-yl)(2-(pyrimidin-2-yl)phenyl)methanone] | 7.52 | 6.12 | 7.62 |  |  |
| Cc1cccc(C(=O)N2[C@@H]3CC[C@H]2[C@H](Nc2ncc(C(F)(F)F)cc2F)C3)c1-c1ncccn1 [Example 462, ((1S,2R,4R)-2-((3-fluoro-5-(trifluoromethyl)pyridin-2-yl)amino)-7-azabicyclo[2.2.1]heptan-7-yl)(3-methyl-2-(pyrimidin-2-yl)phenyl)methanone] | 7.74 | 6.47 | 7.51 |  |  |
| O=C(c1cccc(F)c1-c1ncc(F)cn1)N1[C@@H]2CC[C@H]1[C@H](Nc1ncc(C(F)(F)F)cc1F)C2 [Example 463, (3-fluoro-2-(5-fluoropyrimidin-2-yl)phenyl)((1S,2R,4R)-2-((3-fluoro-5-(trifluoromethyl)pyridin-2-yl)amino)-7-azabicyclo[2.2.1]heptan-7-yl)methanone] |  | 5.72 |  | 7.28 | 7.30 |
